Measurements: ChEMBL document CHEMBL3885881, “DrugMatrix”

Organism: Rattus norvegicus
Assay: DrugMatrix - Regimen: Daily Repeat
Format: toxicity, organism-based, Sprague-Dawley
Parameters: regimen Daily Repeat, gender Male, age 6-8 weeks
Details: in vivo, po, route oral GAVAGE, vehicle .5 % CMC; for ABSOLUTE BASOPHIL / ABSOLUTE EOSINOPHIL / ABSOLUTE LYMPHOCYTE / ABSOLUTE MONOCYTE / ABSOLUTE SEGMENTED NEUTROPHIL / BASOPHIL / EOSINOPHIL / ERYTHROCYTE COUNT / HEMATOCRIT / HEMOGLOBIN / LEUKOCYTE COUNT / LYMPHOCYTE / MEAN CORPUSCULAR HEMOGLOBIN / MEAN CORPUSCULAR HEMOGLOBIN CONCENTRATION / MEAN CORPUSCULAR VOLUME / MONOCYTE / NEUTROPHIL / NUCLEATED RED BLOOD CELLS / PLATELET COUNT: tissue Blood; for ALANINE AMINOTRANSFERASE / ALBUMIN / ALKALINE PHOSPHATASE / ASPARTATE AMINOTRANSFERASE / BLOOD UREA NITROGEN / CARBON DIOXIDE / CHLORIDE / CHOLESTEROL / CREATINE PHOSPHOKINASE / CREATININE / GLUCOSE / LACTATE DEHYDROGENASE / LIPASE / PHOSPHORUS / POTASSIUM / SODIUM / TOTAL BILIRUBIN / TOTAL PROTEIN / URIC ACID: tissue Plasma
[1] = 2500 mg/kg, 120 h, dose level High, time 5 day
[2] = […], 72 h, dose 5.4 mg/Kg, dose level Low, time 3 day
[3] = […], 120 h, dose 5.4 mg/Kg, dose level Low, time 5 day

## CN1CCC[C@@H]1CCO[C@](C)(c1ccccc1)c1ccc(Cl)cc1 [CLEMASTINE]
[1]
  ABSOLUTE BASOPHIL: 0 CELLS/uL
  ABSOLUTE EOSINOPHIL: 0 CELLS/uL
  ABSOLUTE LYMPHOCYTE: 7767.5 CELLS/uL
  ABSOLUTE MONOCYTE: 575 CELLS/uL
  ABSOLUTE SEGMENTED NEUTROPHIL: 8407.5 CELLS/uL
  BASOPHIL: 0%
  EOSINOPHIL: 0%
  ERYTHROCYTE COUNT: 7.67 x10E6/uL
  HEMATOCRIT: 45.5%
  HEMOGLOBIN: 18 G/DL
  LEUKOCYTE COUNT: 16.75 x10E3/uL
  LYMPHOCYTE: 45.5%
  MEAN CORPUSCULAR HEMOGLOBIN: 23.5 pg
  MEAN CORPUSCULAR HEMOGLOBIN CONCENTRATION: 39.55 G/DL
  MEAN CORPUSCULAR VOLUME: 59.4 fL
  MONOCYTE: 3.5%
  NEUTROPHIL: 51%
  NUCLEATED RED BLOOD CELLS: 0 /100WBC
  PLATELET COUNT: 1417 x10E3/uL
  ALANINE AMINOTRANSFERASE: 189 u/L
  ALBUMIN: 3.45 G/DL
  ALKALINE PHOSPHATASE: 274 u/L
  ASPARTATE AMINOTRANSFERASE: 822.5 u/L
  BLOOD UREA NITROGEN: 37 mg/dL
  CARBON DIOXIDE: 21.5 mmol/L
  CHLORIDE: 84 MEQ/L
  CHOLESTEROL: 24 mg/dL
  CREATINE PHOSPHOKINASE: 1389.5 u/L
  CREATININE: 0.24 mg/dL
  GLUCOSE: 68.5 mg/dL
  LACTATE DEHYDROGENASE: 1904 u/L
  LIPASE: 11 u/L
  PHOSPHORUS: 22.25 mg/dL
  POTASSIUM: 6.91 MEQ/L
  SODIUM: 139.35 MEQ/L
  TOTAL BILIRUBIN: 0.25 mg/dL
  TOTAL PROTEIN: 5.3 G/DL
  URIC ACID: 6.55 mg/dL
[2]
  ABSOLUTE BASOPHIL: 0 CELLS/uL
  ABSOLUTE EOSINOPHIL: 41.67 CELLS/uL
  ABSOLUTE LYMPHOCYTE: 12326.67 CELLS/uL
  ABSOLUTE MONOCYTE: 80.67 CELLS/uL
  ABSOLUTE SEGMENTED NEUTROPHIL: 1517.67 CELLS/uL
  BASOPHIL: 0%
  EOSINOPHIL: 0.33%
  ERYTHROCYTE COUNT: 5.26 x10E6/uL
  HEMATOCRIT: 33.9%
  HEMOGLOBIN: 13.3 G/DL
  LEUKOCYTE COUNT: 13.97 x10E3/uL
  LYMPHOCYTE: 88%
  MEAN CORPUSCULAR HEMOGLOBIN: 25.3 pg
  MEAN CORPUSCULAR HEMOGLOBIN CONCENTRATION: 39.23 G/DL
  MEAN CORPUSCULAR VOLUME: 64.53 fL
  MONOCYTE: 0.67%
  NEUTROPHIL: 11%
  NUCLEATED RED BLOOD CELLS: 0 /100WBC
  PLATELET COUNT: 1091.33 x10E3/uL
  ALANINE AMINOTRANSFERASE: 56 u/L
  ALBUMIN: 4.07 G/DL
  ALKALINE PHOSPHATASE: 313.67 u/L
  ASPARTATE AMINOTRANSFERASE: 78.33 u/L
  BLOOD UREA NITROGEN: 16 mg/dL
  CARBON DIOXIDE: 30 mmol/L
  CHLORIDE: 100.33 MEQ/L
  CHOLESTEROL: 87 mg/dL
  CREATINE PHOSPHOKINASE: 239.33 u/L
  CREATININE: 0.19 mg/dL
  GLUCOSE: 158.67 mg/dL
  LACTATE DEHYDROGENASE: 247.33 u/L
  LIPASE: 9.33 u/L
  PHOSPHORUS: 11.17 mg/dL
  POTASSIUM: 5.9 MEQ/L
  SODIUM: 141.47 MEQ/L
  TOTAL BILIRUBIN: 0.2 mg/dL
  TOTAL PROTEIN: 5.63 G/DL
  URIC ACID: 1.23 mg/dL
[3]
  ABSOLUTE BASOPHIL: 0 CELLS/uL
  ABSOLUTE EOSINOPHIL: 52.33 CELLS/uL
  ABSOLUTE LYMPHOCYTE: 12918 CELLS/uL
  ABSOLUTE MONOCYTE: 156.33 CELLS/uL
  ABSOLUTE SEGMENTED NEUTROPHIL: 1306.67 CELLS/uL
  BASOPHIL: 0%
  EOSINOPHIL: 0.33%
  ERYTHROCYTE COUNT: 5.68 x10E6/uL
  HEMATOCRIT: 35.67%
  HEMOGLOBIN: 14.13 G/DL
  LEUKOCYTE COUNT: 14.43 x10E3/uL
  LYMPHOCYTE: 89.33%
  MEAN CORPUSCULAR HEMOGLOBIN: 24.93 pg
  MEAN CORPUSCULAR HEMOGLOBIN CONCENTRATION: 39.67 G/DL
  MEAN CORPUSCULAR VOLUME: 62.87 fL
  MONOCYTE: 1.33%
  NEUTROPHIL: 9%
  NUCLEATED RED BLOOD CELLS: 0.33 /100WBC
  PLATELET COUNT: 866 x10E3/uL
  ALANINE AMINOTRANSFERASE: 51 u/L
  ALBUMIN: 4.57 G/DL
  ALKALINE PHOSPHATASE: 318.67 u/L
  ASPARTATE AMINOTRANSFERASE: 79.67 u/L
  BLOOD UREA NITROGEN: 14 mg/dL
  CARBON DIOXIDE: 30.33 mmol/L
  CHLORIDE: 101.33 MEQ/L
  CHOLESTEROL: 68.33 mg/dL
  CREATINE PHOSPHOKINASE: 200.33 u/L
  CREATININE: 0.16 mg/dL
  GLUCOSE: 155.33 mg/dL
  LACTATE DEHYDROGENASE: 118.67 u/L
  LIPASE: 10 u/L
  PHOSPHORUS: 10.77 mg/dL
  POTASSIUM: 6.13 MEQ/L
  SODIUM: 141.6 MEQ/L
  TOTAL BILIRUBIN: 0.2 mg/dL
  TOTAL PROTEIN: 6.3 G/DL
  URIC ACID: 1.47 mg/dL
